One data set concerns the target T1, mouse DGAT1 (Mus musculus, UniProt Q9Z2A7).
T1 construct: made in house; host or cells: insect cells (High Five, Sf9, Sf21, etc.), baculovirus expression system (Invitrogen)
T1 sequence (Q9Z2A7 1-498): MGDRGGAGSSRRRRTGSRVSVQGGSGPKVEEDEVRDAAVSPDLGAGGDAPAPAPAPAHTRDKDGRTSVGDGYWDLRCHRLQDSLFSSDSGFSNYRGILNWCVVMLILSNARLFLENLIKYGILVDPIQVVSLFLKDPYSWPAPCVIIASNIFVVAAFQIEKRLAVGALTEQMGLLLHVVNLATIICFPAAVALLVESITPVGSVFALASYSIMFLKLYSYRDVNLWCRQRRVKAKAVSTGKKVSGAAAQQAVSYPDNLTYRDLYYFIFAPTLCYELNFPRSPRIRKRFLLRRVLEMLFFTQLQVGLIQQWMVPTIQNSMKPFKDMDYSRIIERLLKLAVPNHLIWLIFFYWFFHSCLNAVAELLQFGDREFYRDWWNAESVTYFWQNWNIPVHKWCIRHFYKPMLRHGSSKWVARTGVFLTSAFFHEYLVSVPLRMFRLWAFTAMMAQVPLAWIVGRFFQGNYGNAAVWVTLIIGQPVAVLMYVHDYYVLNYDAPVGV
Briefly: DGAT1 inhibitory effect test (microsome fraction, [14C]-oleoyl-CoA, triglyceride radioactivity by TLC). The settings on record: 0.5 h; concentration of the test compound 0.1 μg/ml; mouse DGAT1 microsomes, 23° C., 30 minutes; read-out: Inhibitory ratio. The format is biochemical. In a few lines:
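Inhibition was scored from radiolabelled triglyceride separated by TLC, relative to vehicle and net of a 0-min background. The reaction ran for 30 min at room temperature (23 °C) in Tris-HCl pH 8.0 with MgCl2, BSA and Triton X-100. Substrates were 30 μM [14C]-oleoyl-CoA and 0.5 mM dioleoylglycerol, with mouse DGAT1 microsomes from baculovirus-infected insect cells as enzyme.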

Here are results for 23 compounds from patent US20070249620A1, “Urea Derivative” (priority 2004, published 2007).

Each structure is given as a SMILES string. Bounds are passed on as bounds.

`COc1cc(NC(=O)Nc2ccc3c(c2)CCN(C(=O)Nc2ccc(OCC(O)CO)cc2Cl)C3)cc(OC)c1` (stereo not shown) [Example 285, 6-[3-(3,5-dimethoxy-phenyl)-ureido]-3,4-dihydro-1H-isoquinoline-2-carboxylic acid [2-chloro-4-(2,3-dihydroxy-propoxy)-phenyl]-amide] displayed a melting point of 108 to 110 °C. Also, the inhibition at 0.1 µg/mL on mouse DGAT1 is ≥ 50%.

The compound `COc1ccccc1NC(=O)Nc1ccc(C2=CCN(C(=O)Nc3ccc(OCC(O)CO)cc3Cl)CC2)cc1` (stereo not shown) [Example 286, 4-{4-[3-(2-methoxy-phenyl)-ureido]-phenyl}-3,6-dihydro-2H-pyridine-1-carboxylic acid [2-chloro-4-(2,3-dihydroxy-propoxy)-phenyl]-amide] showed a melting point of 103 to 107 °C. Besides, the inhibition at 0.1 µg/mL on mouse DGAT1 was ≥ 50%.

For the compound `COc1cc(NC(=O)Nc2ccc(C3=CCN(C(=O)Nc4ccc(OCC(O)CO)cc4Cl)CC3)cc2)cc(OC)c1` (stereo not shown) [Example 287, 4-{4-[3-(3,5-dimethoxy-phenyl)-ureido]-phenyl}-3,6-dihydro-2H-pyridine-1-carboxylic acid [2-chloro-4-(2,3-dihydroxy-propoxy)-phenyl]-amide], the melting point lay within 108 to 111 °C. Besides, the inhibition at 0.1 µg/mL at mouse DGAT1 was ≥ 50%.

`COc1ccccc1NC(=O)Nc1ccc(C2CCN(C(=O)Nc3ccc(OCC(O)CO)cc3Cl)CC2)cc1` (stereo not shown) [Example 288, 4-{4-[3-(2-methoxy-phenyl)-ureido]-phenyl}-piperidine-1-carboxylic acid [2-chloro-4-(2,3-dihydroxy-propoxy)-phenyl]-amide] came in with a melting point of 158 to 161 °C. Besides, the inhibition at 0.1 µg/mL on mouse DGAT1 was ≥ 50%.

For the compound `COc1cc(NC(=O)Nc2ccc(C3CCN(C(=O)Nc4ccc(OCC(O)CO)cc4Cl)CC3)cc2)cc(OC)c1` (stereo not shown) [Example 289, 4-{4-[3-(3,5-dimethoxy-phenyl)-ureido]-phenyl}-piperidine-1-carboxylic acid [2-chloro-4-(2,3-dihydroxy-propoxy)-phenyl]-amide], the melting point was in the range of 105 to 108 °C. For the same compound, the inhibition at 0.1 µg/mL on mouse DGAT1 was ≥ 50%.

In turn, `O=C(Nc1ccc2c(c1)CCN(C(=O)Nc1ccc(OCC(O)CO)cc1Cl)C2)Nc1ccccc1F` (stereo not shown) [Example 290, 6-[3-(2-fluoro-phenyl)-ureido]-3,4-dihydro-1H-isoquinoline-2-carboxylic acid [2-chloro-4-(2,3-dihydroxy-propoxy)-phenyl]-amide] came in with a melting point of 164 to 167 °C. For the same compound, the inhibition at 0.1 µg/mL at mouse DGAT1 was ≥ 50%.

`CCOc1cccc(NC(=O)Nc2ccc3c(c2)CCN(C(=O)Nc2ccc(OCC(O)CO)cc2Cl)C3)c1` (stereo not shown) [Example 291, 6-[3-(3-ethoxy-phenyl)-ureido]-3,4-dihydro-1H-isoquinoline-2-carboxylic acid [2-chloro-4-(2,3-dihydroxy-propoxy)-phenyl]-amide] registered a melting point of 134 to 139 °C. Further, the inhibition at 0.1 µg/mL on mouse DGAT1 is ≥ 50%.

For `O=C(Nc1ccc(C2CCN(C(=O)Nc3ccc(OCC(O)CO)cc3Cl)CC2)cc1)Nc1ccccc1F` (stereo not shown) [Example 292, 4-{4-[3-(2-fluoro-phenyl)-ureido]-phenyl}-piperidine-1-carboxylic acid [2-chloro-4-(2,3-dihydroxy-propoxy)-phenyl]-amide], the melting point was 170 to 175 °C. The inhibition at 0.1 µg/mL on mouse DGAT1 was ≥ 50%.

`COc1ccc(C)cc1NC(=O)Nc1ccc2c(c1)CCN(C(=O)Nc1ccc(OCC(O)CO)cc1C(F)(F)F)C2` (stereo not shown) [Example 293, 6-[3-(2-methoxy-5-methyl-phenyl)-ureido]-3,4-dihydro-1H-isoquinoline-2-carboxylic acid [4-(2,3-dihydroxy-propoxy)-2-trifluoromethyl-phenyl]-amide] gave a melting point of 174 to 176 °C. Also, on mouse DGAT1, the inhibition at 0.1 µg/mL is ≥ 50%.

On to `COc1ccc(C)cc1NC(=O)Nc1ccc(N2CCN(C(=O)Nc3ncccc3C)CC2)cc1` [Example 294, 4-{4-[3-(2-methoxy-5-methyl-phenyl)-ureido]-phenyl}-piperazine-1-carboxylic acid (3-methyl-pyridin-2-yl)-amide], for which the melting point was 209 to 211 °C. Further, the inhibition at 0.1 µg/mL at mouse DGAT1 was ≥ 50%.

Consider `Cc1cccnc1NC(=O)N1CCN(c2ccc(NC(=O)Nc3ccccc3F)cc2)CC1` [Example 295, 4-{4-[3-(2-fluoro-phenyl)-ureido]-phenyl}-piperazine-1-carboxylic acid (3-methyl-pyridin-2-yl)-amide], for which the melting point was > 250 °C (dec.). Besides, on mouse DGAT1, the inhibition at 0.1 µg/mL is ≥ 50%.

For `COc1ccc(F)cc1NC(=O)Nc1ccc(N2CCN(C(=O)Nc3ncccc3C)CC2)cc1` [Example 296, 4-{4-[3-(5-fluoro-2-methoxy-phenyl)-ureido]-phenyl}-piperazine-1-carboxylic acid (3-methyl-pyridin-2-yl)-amide], the melting point lay within 206 to 208 °C. Also, the inhibition at 0.1 µg/mL on mouse DGAT1 is ≥ 50%.

For `COc1ccc(F)cc1NC(=O)Nc1ccc(N2CCN(C(=O)Nc3ncccc3C)CC2)nc1` [Example 298, 4-{5-[3-(5-fluoro-2-methoxy-phenyl)-ureido]-pyridin-2-yl}-piperazine-1-carboxylic acid (3-methyl-pyridin-2-yl)-amide], the melting point lay in the range of 196 to 198 °C. The inhibition at 0.1 µg/mL at mouse DGAT1 was ≥ 50%.

In the case of `CCOc1ccc(Cl)cc1NC(=O)Nc1ccc(N2CCN(C(=O)Nc3ncccc3C)CC2)nc1` [Example 299, 4-{5-[3-(5-chloro-2-ethoxy-phenyl)-ureido]-pyridin-2-yl}-piperazine-1-carboxylic acid (3-methyl-pyridin-2-yl)-amide], the melting point was 214 to 215 °C. Moreover, on mouse DGAT1, the inhibition at 0.1 µg/mL is ≥ 50%.

`CCOc1ccc(F)cc1NC(=O)Nc1ccc(N2CCN(C(=O)Nc3ncccc3C)CC2)nc1` [Example 300, 4-{5-[3-(2-ethoxy-5-fluoro-phenyl)-ureido]-pyridin-2-yl}-piperazine-1-carboxylic acid (3-methyl-pyridin-2-yl)-amide] displayed a melting point of 180 to 185 °C. In addition, the inhibition at 0.1 µg/mL at mouse DGAT1 was ≥ 50%.

As to `COc1ccc(C)cc1NC(=O)Nc1ccc(N2CCN(C(=O)Nc3ncccc3C)CC2)nc1` [Example 301, 4-{5-[3-(2-methoxy-5-methyl-phenyl)-ureido]-pyridin-2-yl}-piperazine-1-carboxylic acid (3-methyl-pyridin-2-yl)-amide], the melting point was 216 to 218 °C. For the same compound, the inhibition at 0.1 µg/mL on mouse DGAT1 was ≥ 50%.

Turning to `Cc1cccnc1NC(=O)N1CCN(c2ccc(NC(=O)Nc3ccccc3F)cn2)CC1` [Example 302, 4-{5-[3-(2-fluoro-phenyl)-ureido]-pyridin-2-yl}-piperazine-1-carboxylic acid (3-methyl-pyridin-2-yl)-amide], the melting point fell in the range of 213 to 215 °C. The inhibition at 0.1 µg/mL at mouse DGAT1 was ≥ 50%.

In turn, `COc1cccc(NC(=O)Nc2ccc(N3CCN(C(=O)Nc4ncccc4C)CC3)cc2)c1` [Example 303, 4-{4-[3-(3-methoxy-phenyl)-ureido]-phenyl}-piperazine-1-carboxylic acid (3-methyl-pyridin-2-yl)-amide] came in with a melting point of 191 to 193 °C. Moreover, the inhibition at 0.1 µg/mL on mouse DGAT1 was ≥ 50%.

The compound `CCOc1ccccc1NC(=O)Nc1ccc(N2CCN(C(=O)Nc3ncccc3C)CC2)cc1` [Example 304, 4-{4-[3-(2-ethoxy-phenyl)-ureido]-phenyl}-piperazine-1-carboxylic acid (3-methyl-pyridin-2-yl)-amide] returned a melting point of 110 to 112 °C. Also, the inhibition at 0.1 µg/mL at mouse DGAT1 is ≥ 50%.

Turning to `CCOc1cccc(NC(=O)Nc2ccc(N3CCN(C(=O)Nc4ncccc4C)CC3)cc2)c1` [Example 305, 4-{4-[3-(3-ethoxy-phenyl)-ureido]-phenyl}-piperazine-1-carboxylic acid (3-methyl-pyridin-2-yl)-amide], the melting point was 171 to 173 °C. Further, on mouse DGAT1, the inhibition at 0.1 µg/mL is ≥ 50%.

`COc1cc(NC(=O)Nc2ccc(N3CCN(C(=O)Nc4ncccc4C)CC3)cc2)cc(OC)c1` [Example 306, 4-{4-[3-(3,5-dimethoxy-phenyl)-ureido]-phenyl}-piperazine-1-carboxylic acid (3-methyl-pyridin-2-yl)-amide] displayed a melting point of 188 to 190 °C. Further, the inhibition at 0.1 µg/mL at mouse DGAT1 is ≥ 50%.

Consider `CCOc1ccc(C)cc1NC(=O)Nc1ccc(N2CCN(C(=O)Nc3ncccc3C)CC2)nc1` [Example 307, 4-{5-[3-(2-ethoxy-5-methyl-phenyl)-ureido]-pyridin-2-yl}-piperazine-1-carboxylic acid (3-methyl-pyridin-2-yl)-amide], for which the melting point is 198 to 200 °C. Besides, the inhibition at 0.1 µg/mL on mouse DGAT1 was ≥ 50%.

Regarding `COc1ccc(Cl)cc1NC(=O)Nc1ccc(N2CCN(C(=O)Nc3ncccc3C)CC2)nc1` [Example 308, 4-{5-[3-(5-chloro-2-methoxy-phenyl)-ureido]-pyridin-2-yl}-piperazine-1-carboxylic acid (3-methyl-pyridin-2-yl)-amide], the melting point was 203 to 205 °C. Also, the inhibition at 0.1 µg/mL on mouse DGAT1 is ≥ 50%.

Broadly, the melting point is the temperature, or range, at which the solid turns liquid.
